Data reported in US12173018B2, “Penicillin-binding protein inhibitors” (priority 2018, dated 2024).
Converted amounts (≈) assume the structure as drawn.

Key:
E. coli 901C = assay: microbe, parasite or virus in culture; assay type: cell-based; settings: Escherichia coli; hyper-permeable E. coli 901C, broth microdilution; read-out: MIC E. coli 901C
Outline: (§1)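 Following CLSI guidance, growth inhibition is measured in Mueller-Hinton broth with divalent cations. Inoculum 5×10^5 CFU/mL; incubation 16-20 hours, 37° C; endpoint is visual absence of growth.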

E. coli AG100A = assay: microbe, parasite or virus in culture; assay type: cell-based; settings: Escherichia coli, read-out: MIC E. coli AG100A
Outline: as §1

E. coli D22 = assay: microbe, parasite or virus in culture; assay type: cell-based; settings: Escherichia coli; hyper-permeable E. coli D22, broth microdilution; read-out: MIC E. coli D22
Outline: as §1

K. pneumoniae SI-117 = assay: microbe, parasite or virus in culture; assay type: cell-based; settings: Klebsiella pneumoniae, SI117, read-out: MIC K. pneumoniae SI-117
Outline: as §1

K. pneumoniae UMM = assay: microbe, parasite or virus in culture; assay type: cell-based; settings: Klebsiella pneumoniae; K. pneumoniae UMM producing SHV-5 and KPC-2; read-out: MIC K. pneumoniae UMM
Outline: as §1

K. pneumoniae 848844 = assay: microbe, parasite or virus in culture; assay type: cell-based, Klebsiella pneumoniae; settings: Klebsiella pneumoniae; K. pneumoniae 848844 producing SHV-11 and KPC-2; read-out: MIC K. pneumoniae 848844
Outline: as §1

N. gonorrhoeae WHO F = assay: Liquid broth MIC, N. gonorrhoeae WHO F; assay type: cell-based; settings: Neisseria gonorrhoeae; N. gonorrhoeae WHO F, liquid broth; read-out: Minimum Inhibitory Concentration, N. gonorrhoeae WHO F
Outline: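 Colonies sub-cultured 24 h earlier on supplemented GC agar are suspended in broth, adjusted by optical density at 600 nm and added to 2-fold serial compound dilutions at 5×10^5 CFU/mL. Plates incubate 40-42 hours at 36° C with 5% CO2 before visual MIC reading.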

Structure (SMILES)	MIC (E. coli 901C)	MIC (E. coli AG100A)	MIC (E. coli D22)	MIC (K. pneumoniae SI-117)	MIC (K. pneumoniae UMM)	MIC (K. pneumoniae 848844)	MIC (N. gonorrhoeae WHO F)
O=C(O)c1cccc2c1OB(O)[C@@H](NC(=O)C(NC(=O)N1CCN(CCF)C(=O)C1=O)c1ccc(B(O)O)cc1)C2 (stereo partly drawn) [Example 113, (3R)-3-(2-(4-boronophenyl)-2-(4-(2-fluoroethyl)-2,3-dioxopiperazine-1-carboxamido)acetamido)-2-hydroxy-3,4-dihydro-2H-benzo[e][1,2]oxaborinine-8-carboxylic acid]	< 0.25 µg/mL	2 to 4 µg/mL	8 to 16 µg/mL	> 128 µg/mL	32 to 64 µg/mL	> 128 µg/mL	< 0.125 µg/mL
CCN1CCN(C(=O)NC(C(=O)N[C@H]2Cc3cccc(C(=O)O)c3OB2O)c2cccc(N)n2)C(=O)C1=O (stereo partly drawn) [Example 104, (3R)-3-(2-(6-aminopyridin-2-yl)-2-(4-ethyl-2,3-dioxopiperazine-1-carboxamido)acetamido)-2-hydroxy-3,4-dihydro-2H-benzo[e][1,2]oxaborinine-8-carboxylic acid]	< 0.25 µg/mL	0.5 to 1 µg/mL	2 to 4 µg/mL	32 to 64 µg/mL	32 to 64 µg/mL	> 128 µg/mL	
CCN1CCN(C(=O)N[C@@H](C(=O)N[C@H]2Cc3ccc(F)c(C(=O)O)c3OB2O)[C@@H](C)O)C(=O)C1=O [Example 110, (R)-3-((2R,3R)-2-(4-ethyl-2,3-dioxopiperazine-1-carboxamido)-3-hydroxybutanamido)-7-fluoro-2-hydroxy-3,4-dihydro-2H-benzo[e][1,2]oxaborinine-8-carboxylic acid]	2 to 4 µg/mL	8 to 16 µg/mL	8 to 16 µg/mL	8 to 16 µg/mL	8 to 16 µg/mL	32 to 64 µg/mL	
CCN1CCN(C(=O)NC(C(=O)N[C@H]2Cc3cccc(C(=O)[O-])c3OB2O)c2ccc[n+](CC(N)=O)c2)C(=O)C1=O (stereo partly drawn) [Example 107, (3R)-3-(2-(1-(2-amino-2-oxoethyl)pyridin-1-ium-3-yl)-2-(4-ethyl-2,3-dioxopiperazine-1-carboxamido)acetamido)-2-hydroxy-3,4-dihydro-2H-benzo[e][1,2]oxaborinine-8-carboxylate]	8 to 16 µg/mL	8 to 16 µg/mL	32 to 64 µg/mL	32 to 64 µg/mL	32 to 64 µg/mL	32 to 64 µg/mL	
CCN1CCN(C(=O)NC(C(=O)N[C@H]2Cc3cccc(C(=O)O)c3OB2O)c2ccc(O)cc2)C(=O)C1=O (stereo partly drawn) [Example 27, (3R)-3-(2-(4-ethyl-2,3-dioxopiperazine-1-carboxamido)-2-(4-hydroxyphenyl)acetamido)-2-hydroxy-3,4-dihydro-2H-benzo[e][1,2]oxaborinine-8-carboxylic acid]	0.5 to 1 µg/mL	2 to 4 µg/mL	8 to 16 µg/mL	32 to 64 µg/mL	32 to 64 µg/mL	> 128 µg/mL	
CCN1CCN(C(=O)NC(C(=O)N[C@H]2Cc3cccc(C(=O)O)c3OB2O)c2ccc(S(N)(=O)=O)cc2)C(=O)C1=O (stereo partly drawn) [Example 102, (3R)-3-(2-(4-ethyl-2,3-dioxopiperazine-1-carboxamido)-2-(4-sulfamoylphenyl)acetamido)-2-hydroxy-3,4-dihydro-2H-benzo[e][1,2]oxaborinine-8-carboxylic acid]	< 0.25 µg/mL	2 to 4 µg/mL			32 to 64 µg/mL		< 0.125 µg/mL
CCN1CCN(C(=O)NC(C(=O)N[C@H]2Cc3cccc(C(=O)O)c3OB2O)c2csc(N)n2)C(=O)C1=O (stereo partly drawn) [Example 5, (3R)-3-(2-(2-aminothiazol-4-yl)-2-(4-ethyl-2,3-dioxopiperazine-1-carboxamido)acetamido)-2-hydroxy-3,4-dihydro-2H-benzo[e][1,2]oxaborinine-8-carboxylic acid]	< 0.25 µg/mL	2 to 4 µg/mL	2 to 4 µg/mL	8 to 16 µg/mL	8 to 16 µg/mL	32 to 64 µg/mL	< 0.125 µg/mL
CCN1CCN(C(=O)NC(C(=O)N[C@H]2Cc3cccc(C(=O)O)c3OB2O)c2cnc(O)cn2)C(=O)C1=O (stereo partly drawn) [Example 121, (3R)-3-(2-(4-ethyl-2,3-dioxopiperazine-1-carboxamido)-2-(5-hydroxypyrazin-2-yl)acetamido)-2-hydroxy-3,4-dihydro-2H-benzo[e][1,2]oxaborinine-8-carboxylic acid]	0.5 to 1 µg/mL	2 to 4 µg/mL	8 to 16 µg/mL	32 to 64 µg/mL	8 to 16 µg/mL	> 128 µg/mL	
CCCN1CCN(C(=O)NC(C(=O)N[C@H]2Cc3cccc(C(=O)O)c3OB2O)c2ccc(O)c(O)c2Cl)C(=O)C1=O (stereo partly drawn) [Example 82, (3R)-3-(2-(2-chloro-3,4-dihydroxyphenyl)-2-(2,3-dioxo-4-propylpiperazine-1-carboxamido)acetamido)-2-hydroxy-3,4-dihydro-2H-benzo[e][1,2]oxaborinine-8-carboxylic acid]	2 to 4 µg/mL	2 to 4 µg/mL	2 to 4 µg/mL	32 to 64 µg/mL	32 to 64 µg/mL	> 128 µg/mL	
CCN1CCN(C(=O)NC(C(=O)N[C@H]2Cc3cc(F)cc(C(=O)O)c3OB2O)c2csc(N)n2)C(=O)C1=O (stereo partly drawn) [Example 16, (3R)-3-(2-(2-aminothiazol-4-yl)-2-(4-ethyl-2,3-dioxopiperazine-1-carboxamido)acetamido)-6-fluoro-2-hydroxy-3,4-dihydro-2H-benzo[e][1,2]oxaborinine-8-carboxylic acid]	0.5 to 1 µg/mL	2 to 4 µg/mL	8 to 16 µg/mL	32 to 64 µg/mL	32 to 64 µg/mL	32 to 64 µg/mL	
CCN1CCN(C(=O)NC(C(=O)N[C@H]2Cc3cccc(C(=O)O)c3OB2O)c2ccc(O)cc2F)C(=O)C1=O (stereo partly drawn) [Example 87, (3R)-3-(2-(4-ethyl-2,3-dioxopiperazine-1-carboxamido)-2-(2-fluoro-4-hydroxyphenyl)acetamido)-2-hydroxy-3,4-dihydro-2H-benzo[e][1,2]oxaborinine-8-carboxylic acid]							< 0.125 µg/mL
CCN1CCN(C(=O)NC(C(=O)N[C@H]2Cc3cccc(C(=O)O)c3OB2O)c2cccs2)C(=O)C1=O (stereo partly drawn) [Example 115, (3R)-3-(2-(4-ethyl-2,3-dioxopiperazine-1-carboxamido)-2-(thiophen-2-yl)acetamido)-2-hydroxy-3,4-dihydro-2H-benzo[e][1,2]oxaborinine-8-carboxylic acid]	< 0.25 µg/mL	2 to 4 µg/mL	8 to 16 µg/mL	32 to 64 µg/mL	32 to 64 µg/mL	> 128 µg/mL	
CCN1CCN(C(=O)NC(C(=O)N[C@H]2Cc3cccc(C(=O)O)c3OB2O)c2cc(O)c(O)cc2F)C(=O)C1=O (stereo partly drawn) [Example 90, (3R)-3-(2-(4-ethyl-2,3-dioxopiperazine-1-carboxamido)-2-(2-fluoro-4,5-dihydroxyphenyl)acetamido)-2-hydroxy-3,4-dihydro-2H-benzo[e][1,2]oxaborinine-8-carboxylic acid]	0.5 to 1 µg/mL	2 to 4 µg/mL	8 to 16 µg/mL	> 128 µg/mL	8 to 16 µg/mL	32 to 64 µg/mL	
NS(=O)(=O)c1ccc(C(NC(=O)N2CCN(CCF)C(=O)C2=O)C(=O)N[C@H]2Cc3cccc(C(=O)O)c3OB2O)cc1 (stereo partly drawn) [Example 103, (3R)-3-(2-(4-(2-fluoroethyl)-2,3-dioxopiperazine-1-carboxamido)-2-(4-sulfamoylphenyl)acetamido)-2-hydroxy-3,4-dihydro-2H-benzo[e][1,2]oxaborinine-8-carboxylic acid]	< 0.25 µg/mL	2 to 4 µg/mL			32 to 64 µg/mL		< 0.125 µg/mL
CCN1CCN(C(=O)NC(C(=O)N[C@H]2Cc3cccc(C(=O)O)c3OB2O)c2ccc(O)c(O)c2Cl)C(=O)C1=O (stereo partly drawn) [Example 37, (3R)-3-(2-(2-chloro-3,4-dihydroxyphenyl)-2-(4-ethyl-2,3-dioxopiperazine-1-carboxamido)acetamido)-2-hydroxy-3,4-dihydro-2H-benzo[e][1,2]oxaborinine-8-carboxylic acid]	0.5 to 1 µg/mL	2 to 4 µg/mL			8 to 16 µg/mL		1 to 2 µg/mL (≈ 1.74 to 3.48 µM)
CCN1CCN(C(=O)NC(C(=O)N[C@H]2Cc3cccc(C(=O)O)c3OB2O)c2cccc(O)n2)C(=O)C1=O (stereo partly drawn) [Example 117, (3R)-3-(2-(4-ethyl-2,3-dioxopiperazine-1-carboxamido)-2-(6-hydroxypyridin-2-yl)acetamido)-2-hydroxy-3,4-dihydro-2H-benzo[e][1,2]oxaborinine-8-carboxylic acid]	0.5 to 1 µg/mL	2 to 4 µg/mL	8 to 16 µg/mL	> 128 µg/mL	32 to 64 µg/mL	32 to 64 µg/mL	
CCN1CCN(C(=O)NC(C(=O)N[C@H]2Cc3cccc(C(=O)O)c3OB2O)c2cnc(N)s2)C(=O)C1=O (stereo partly drawn) [Example 51, (3R)-3-(2-(2-aminothiazol-5-yl)-2-(4-ethyl-2,3-dioxopiperazine-1-carboxamido)acetamido)-2-hydroxy-3,4-dihydro-2H-benzo[e][1,2]oxaborinine-8-carboxylic acid]	0.5 to 1 µg/mL	8 to 16 µg/mL			32 to 64 µg/mL		
